Consider one compound from US20240109836A1, “NON-HALL[…] ANALOGS FOR TREATMENT OF NEUROLOGICAL AND PSYCHIATRIC DISORDERS” (The Trustees of Columbia University in the City of New York, priority 2021, published 2024).

Assay [1] concerns the target T1, Serotonin (5-Hydroxytryptamine) 5-HT2A (Homo sapiens, UniProt P28223).
T1 construct: Panlabs (SafetyScreen44 panel)
Nature of the assay: SafetyScreen44 (Panlabs) panel, replacement of standard ligand. The class given is binding. Particulars: hum.

In assay [2] the target is T2, Serotonin (5-Hydroxytryptamine) 5-HT2B (Homo sapiens, UniProt P41595).
T2 construct: Panlabs (SafetyScreen44 panel)
The assay is described as above. The class given is binding. Particulars: hum.

The next assay deals with 5-HT2A (Homo sapiens, UniProt P28223). Nature of the assay: IP1 agonist functional assay. The class given is cell-based. Particulars: 5HT2A versus 5HT2B, relative agonism potencies.
Another assay deals with 5-HT2B (Homo sapiens, UniProt P41595). Put plainly: IP1 agonist functional assay. The class given is cell-based.
The nature of another assay: Forced swim test. The class given is in vivo, Mice (C57bl/6J). Particulars: mice, 10 mg/kg s.c., 15 minutes post injection. The protocol:
FIG. 1. […] N=5 mice (saline), N=10 (imipramine as a positive control), N=9 mice (Ariadne cohort). Y-axis show the immobility time per each testing session. Drugs were administered subcutaneously (s.c.).
Mice (C57bl/6J, 8-15 weeks, 29-35 g) were weighed and moved to the testing room 30 minutes prior to experimentation. Mice were administered 0.85% saline (s.c., 5 mice), imipramine 15 mg/kg (i.p., 10 mice), or Ariadne (32) 10 mg/kg (s.c., 9 mice). 15 minutes post injection the mice were moved to a forced swim cylinder with water kept at 23.8-25.0 degrees celsius. Mice were allowed to swim for 6 minutes after which they were removed, dried, and returned to their home cage. The last four minutes of the forced swim video footage was analyzed with Noldus FST scoring software. The mouse's view of the FST cylinder was obstructed prior to starting the forced swim test.

The nature of assay [3]: Head twitch response assay. It is filed as in vivo, Mice (C57bl/6J). Particulars: mice, 1, 3, 10, and 30 mg/kg s.c., vs positive control DOI. On the procedure:
FIG. 2. […] N=5 mice in each cohort. […] Drugs were administered s.c.
Mice (C57bl/6J, 8-15 weeks, 26-33 g) were weighed and moved to the testing room 30 minutes prior to experimentation. Mice were administered the experimental compound at a selected dose s.c. and then immediately moved to a new cage. Before beginning the test, mice were allowed to remain in this cage for a set amount of time ranging 0-10 min based on the compound. The head twitch assay was performed by a trained observer watching the mouse for a 10 min duration and recording the total number of head twitches observed.
DOI was tested at the doses of 1, 3, 10 and 30 mg/kg (s.c., 5 mice per dose) and testing began immediately after administration of the compound. Ariadne (32), (29) and (38) were tested at the doses of 1, 3, 10, and 30 mg/kg (s.c., 5 mice per dose) and there was a 10 min interval between treatment and testing.

The next assay addresses T3, Acetylcholinesterase (Homo sapiens, UniProt P22303).
T3 construct: Panlabs (SafetyScreen44 panel)
Nature of the assay: SafetyScreen44 (Panlabs) panel. The class given is biochemical. The note with it: 10 μM. The protocol:
(§1) Other targets included with less than ≥50% stimulation at a concentration of 10 μM: Acetylcholinesterase, COX-1, COX-2, MAO-A, PDE3A, PDE4D2, Protein Tyrosine Kinase (LCK), Adenosine A2A, Adrenergic α1A, Adrenergic α2A, Adrenergic β1, Adrenergic β2, Androgen (Testosterone), Calcium Channel L-Type (Dihydropyridine), CB1, CB2, Cholecystokinin CCK1 (CCKA), Dopamine D1, Dopamine D2S, Endothelin ETA, GABAA (Flunitrazepam, Central), Glucocorticoid, Glutamate-NMDA (Agonism), Histamine H1, Histamine H2, Muscarinic M1, Muscarinic M2, Muscarinic M3, Nicotinic Acetylcholine α4β2, (Cytisine), DOP, KOP, MOP, Potassium Channel [KA], Potassium Channel hERG, Serotonin (5-Hydroxytryptamine) 5-HT1A, 5-HT1B, 5-HT3, Na-channel site 2, DAT, NET, SERT, Vasopressin V1A

A further assay deals with T4, COX-1 (Homo sapiens, UniProt P23219).
T4 construct: Panlabs (SafetyScreen44 panel)
Nature of the assay: SafetyScreen44 (Panlabs) panel. The class given is biochemical. Particulars: 10 μM. On the procedure:
as §1

The next assay has as its target T5, COX-2 (Homo sapiens, UniProt P35354).
T5 construct: Panlabs (SafetyScreen44 panel)
Put plainly: SafetyScreen44 (Panlabs) panel. It is filed as biochemical. The note with it: 10 μM. The protocol:
as §1

For another assay, the target named is T6, MAO-A (Homo sapiens, UniProt P21397).
T6 construct: Panlabs (SafetyScreen44 panel)
Nature of the assay: SafetyScreen44 (Panlabs) panel. The class given is biochemical. The note with it: 10 μM. On the procedure:
as §1

The target in the next assay is T7, PDE3A (Homo sapiens, UniProt Q14432).
T7 construct: Panlabs (SafetyScreen44 panel)
Put plainly: SafetyScreen44 (Panlabs) panel. Particulars: 10 μM. The class given is biochemical. On the procedure: as §1

The target of another assay is T8, PDE4D2 (Homo sapiens, UniProt Q08499).
T8 construct: Panlabs (SafetyScreen44 panel)
Put plainly: SafetyScreen44 (Panlabs) panel. Particulars: 10 μM. The class given is biochemical. On the procedure:
as §1

Assay [4] concerns the target T9, Protein Tyrosine Kinase (LCK) (Homo sapiens, UniProt P06239).
T9 construct: Panlabs (SafetyScreen44 panel)
Put plainly: SafetyScreen44 (Panlabs) panel. The class given is biochemical. The note with it: 10 μM. The protocol:
as §1

For another assay, the system named is 5-HT1B. Nature of the assay: SafetyScreen44 (Panlabs) panel. It is filed as binding. Particulars: 10 μM. The protocol: as §1
The target in a further assay is T10, 5-HT3 (Homo sapiens, UniProt P46098).
T10 construct: Panlabs (SafetyScreen44 panel)
Nature of the assay: SafetyScreen44 (Panlabs) panel. It is filed as binding. Particulars: 10 μM. On the procedure: as §1

The next assay addresses T11, Adenosine A2A (Homo sapiens, UniProt P29274).
T11 construct: Panlabs (SafetyScreen44 panel)
Put plainly: SafetyScreen44 (Panlabs) panel. The class given is binding. Particulars: 10 μM. The protocol:
as §1

The target in another assay is T12, Adrenergic α1A (Rattus norvegicus, UniProt P43140).
T12 construct: Panlabs (SafetyScreen44 panel)
Put plainly: SafetyScreen44 (Panlabs) panel. The note with it: 10 μM. The class given is binding. The protocol: as §1

In a further assay the target is T13, Adrenergic α2A (Homo sapiens, UniProt P08913).
T13 construct: Panlabs (SafetyScreen44 panel)
Nature of the assay: SafetyScreen44 (Panlabs) panel. It is filed as binding. The note with it: 10 μM. On the procedure:
as §1

For a further assay, the target named is T14, Adrenergic β1 (Homo sapiens, UniProt P08588).
T14 construct: Panlabs (SafetyScreen44 panel)
Put plainly: SafetyScreen44 (Panlabs) panel. The class given is binding. Particulars: 10 μM. On the procedure: as §1

The target of a further assay is T15, Adrenergic β2 (Homo sapiens, UniProt P07550).
T15 construct: Panlabs (SafetyScreen44 panel)
Nature of the assay: SafetyScreen44 (Panlabs) panel. It is filed as binding. The note with it: 10 μM. On the procedure:
as §1

Another assay has as its system Androgen (Testosterone). Nature of the assay: SafetyScreen44 (Panlabs) panel. The class given is binding. The note with it: 10 μM. The protocol:
as §1

The target in the next assay is T16, CB1 (Homo sapiens, UniProt P21554).
T16 construct: Panlabs (SafetyScreen44 panel)
Put plainly: SafetyScreen44 (Panlabs) panel. The class given is binding. Particulars: 10 μM. The protocol:
as §1

Another assay has as its target T17, CB2 (Homo sapiens, UniProt P34972).
T17 construct: Panlabs (SafetyScreen44 panel)
Nature of the assay: SafetyScreen44 (Panlabs) panel. It is filed as binding. The note with it: 10 μM. On the procedure: as §1

In assay [5] the test system is Calcium Channel L-Type (Dihydropyridine). Put plainly: SafetyScreen44 (Panlabs) panel. The class given is binding. Particulars: 10 μM. On the procedure: as §1

pEC50: −log10 of the molar value.

T16 sequence (P21554 whole entry): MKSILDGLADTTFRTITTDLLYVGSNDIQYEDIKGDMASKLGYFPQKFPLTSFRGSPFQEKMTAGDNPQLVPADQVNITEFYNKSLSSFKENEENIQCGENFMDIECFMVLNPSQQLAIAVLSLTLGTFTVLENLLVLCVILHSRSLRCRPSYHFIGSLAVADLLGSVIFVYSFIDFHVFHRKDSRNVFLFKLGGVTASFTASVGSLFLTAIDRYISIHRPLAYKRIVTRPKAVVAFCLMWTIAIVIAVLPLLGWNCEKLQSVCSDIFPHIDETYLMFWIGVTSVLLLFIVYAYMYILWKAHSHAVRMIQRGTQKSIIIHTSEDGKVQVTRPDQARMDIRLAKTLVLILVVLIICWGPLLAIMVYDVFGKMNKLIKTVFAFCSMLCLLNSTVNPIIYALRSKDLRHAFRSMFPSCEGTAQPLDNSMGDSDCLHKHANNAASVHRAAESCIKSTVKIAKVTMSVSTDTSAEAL
T9 sequence (P06239 whole entry): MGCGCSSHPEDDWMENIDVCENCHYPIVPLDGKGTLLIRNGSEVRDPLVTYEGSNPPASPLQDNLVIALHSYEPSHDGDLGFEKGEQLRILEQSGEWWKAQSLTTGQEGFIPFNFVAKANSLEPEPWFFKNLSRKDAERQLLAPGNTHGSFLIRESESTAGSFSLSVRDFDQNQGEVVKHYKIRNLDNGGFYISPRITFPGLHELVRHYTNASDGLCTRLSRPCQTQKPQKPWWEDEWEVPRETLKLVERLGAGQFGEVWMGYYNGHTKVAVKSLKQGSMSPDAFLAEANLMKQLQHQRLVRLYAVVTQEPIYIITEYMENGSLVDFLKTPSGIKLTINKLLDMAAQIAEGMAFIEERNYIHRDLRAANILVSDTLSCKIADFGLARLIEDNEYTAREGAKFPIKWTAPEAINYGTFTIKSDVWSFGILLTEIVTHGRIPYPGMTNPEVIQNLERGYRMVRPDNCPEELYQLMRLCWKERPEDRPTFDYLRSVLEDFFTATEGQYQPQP
T17 sequence (P34972 whole entry): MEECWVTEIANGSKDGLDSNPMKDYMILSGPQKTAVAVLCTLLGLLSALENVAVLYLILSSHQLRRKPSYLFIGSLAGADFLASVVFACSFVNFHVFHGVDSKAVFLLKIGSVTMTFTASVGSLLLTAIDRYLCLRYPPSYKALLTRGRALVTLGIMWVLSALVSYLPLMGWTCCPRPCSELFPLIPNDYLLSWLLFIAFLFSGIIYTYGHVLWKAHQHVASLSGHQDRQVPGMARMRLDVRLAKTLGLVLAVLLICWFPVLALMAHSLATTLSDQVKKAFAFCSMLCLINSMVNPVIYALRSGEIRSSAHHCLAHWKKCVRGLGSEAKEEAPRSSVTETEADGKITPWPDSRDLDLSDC
T10 sequence (P46098 24-478, species assumed): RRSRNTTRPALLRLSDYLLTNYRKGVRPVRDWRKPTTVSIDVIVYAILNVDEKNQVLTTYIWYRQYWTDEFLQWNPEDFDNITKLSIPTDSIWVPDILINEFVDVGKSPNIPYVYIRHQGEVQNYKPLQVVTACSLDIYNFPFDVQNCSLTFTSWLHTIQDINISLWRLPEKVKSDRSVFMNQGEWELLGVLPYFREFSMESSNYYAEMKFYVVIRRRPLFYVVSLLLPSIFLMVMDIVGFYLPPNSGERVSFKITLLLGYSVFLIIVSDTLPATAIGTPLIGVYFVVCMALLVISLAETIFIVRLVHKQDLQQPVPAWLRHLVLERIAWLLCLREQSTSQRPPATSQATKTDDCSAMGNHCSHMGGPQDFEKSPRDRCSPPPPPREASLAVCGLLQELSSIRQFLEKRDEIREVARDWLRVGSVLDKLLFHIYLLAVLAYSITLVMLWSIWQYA
T5 sequence (P35354 18-604): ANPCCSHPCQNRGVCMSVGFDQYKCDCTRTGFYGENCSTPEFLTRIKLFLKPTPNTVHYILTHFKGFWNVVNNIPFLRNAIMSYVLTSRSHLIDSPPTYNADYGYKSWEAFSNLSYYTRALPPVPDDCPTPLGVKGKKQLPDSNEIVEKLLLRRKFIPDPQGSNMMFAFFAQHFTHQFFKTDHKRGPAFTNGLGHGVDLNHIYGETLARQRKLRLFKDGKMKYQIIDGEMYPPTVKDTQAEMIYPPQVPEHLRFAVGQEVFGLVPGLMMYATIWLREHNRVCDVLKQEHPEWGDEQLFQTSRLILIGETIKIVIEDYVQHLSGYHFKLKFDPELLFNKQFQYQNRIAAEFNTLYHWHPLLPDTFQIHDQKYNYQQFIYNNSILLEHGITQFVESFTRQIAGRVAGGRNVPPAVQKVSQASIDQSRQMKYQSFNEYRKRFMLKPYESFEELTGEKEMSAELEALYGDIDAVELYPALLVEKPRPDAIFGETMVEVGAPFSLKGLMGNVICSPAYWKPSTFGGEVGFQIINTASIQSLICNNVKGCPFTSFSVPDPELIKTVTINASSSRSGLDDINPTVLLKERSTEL
T3 sequence (P22303 32-614): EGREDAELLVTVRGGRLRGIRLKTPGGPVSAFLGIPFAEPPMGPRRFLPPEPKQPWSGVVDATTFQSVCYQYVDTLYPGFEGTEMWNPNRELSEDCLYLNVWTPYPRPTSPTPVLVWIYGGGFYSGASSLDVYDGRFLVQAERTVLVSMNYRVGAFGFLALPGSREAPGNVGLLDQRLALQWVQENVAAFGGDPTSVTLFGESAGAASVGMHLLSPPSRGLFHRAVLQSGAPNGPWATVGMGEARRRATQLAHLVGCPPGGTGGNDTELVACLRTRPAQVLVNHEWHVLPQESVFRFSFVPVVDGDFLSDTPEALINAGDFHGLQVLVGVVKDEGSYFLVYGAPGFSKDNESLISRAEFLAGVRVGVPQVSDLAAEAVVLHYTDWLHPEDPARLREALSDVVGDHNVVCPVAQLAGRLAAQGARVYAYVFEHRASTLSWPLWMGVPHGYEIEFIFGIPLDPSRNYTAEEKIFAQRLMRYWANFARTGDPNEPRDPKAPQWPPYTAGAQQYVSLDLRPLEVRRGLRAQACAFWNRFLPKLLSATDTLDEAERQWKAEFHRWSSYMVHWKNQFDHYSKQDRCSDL
T2 sequence (P41595 whole entry): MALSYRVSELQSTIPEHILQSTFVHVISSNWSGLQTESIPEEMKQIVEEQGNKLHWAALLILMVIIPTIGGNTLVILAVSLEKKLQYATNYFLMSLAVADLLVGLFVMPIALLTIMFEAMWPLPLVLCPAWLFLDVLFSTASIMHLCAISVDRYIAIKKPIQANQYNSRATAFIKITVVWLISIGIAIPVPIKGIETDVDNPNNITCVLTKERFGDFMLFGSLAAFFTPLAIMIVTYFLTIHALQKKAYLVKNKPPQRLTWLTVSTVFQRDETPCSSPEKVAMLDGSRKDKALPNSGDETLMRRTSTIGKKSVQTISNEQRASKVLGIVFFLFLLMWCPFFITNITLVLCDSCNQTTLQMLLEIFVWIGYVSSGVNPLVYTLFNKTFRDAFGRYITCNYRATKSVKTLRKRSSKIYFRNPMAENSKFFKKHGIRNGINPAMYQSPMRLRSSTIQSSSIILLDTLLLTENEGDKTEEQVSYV
Sequence of 5-HT2B (P41595 whole entry): as above
T15 sequence (P07550 whole entry): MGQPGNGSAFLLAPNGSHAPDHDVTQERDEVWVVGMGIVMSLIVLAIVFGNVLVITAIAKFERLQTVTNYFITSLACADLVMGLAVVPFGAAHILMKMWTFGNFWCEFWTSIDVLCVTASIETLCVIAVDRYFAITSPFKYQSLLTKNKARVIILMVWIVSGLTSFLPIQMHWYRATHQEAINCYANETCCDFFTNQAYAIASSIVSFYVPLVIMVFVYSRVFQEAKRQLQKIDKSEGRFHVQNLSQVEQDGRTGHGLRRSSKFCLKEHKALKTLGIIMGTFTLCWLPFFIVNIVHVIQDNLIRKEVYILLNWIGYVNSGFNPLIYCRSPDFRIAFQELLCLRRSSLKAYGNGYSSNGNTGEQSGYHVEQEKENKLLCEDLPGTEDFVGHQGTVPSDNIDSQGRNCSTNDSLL
T4 sequence (P23219 24-599): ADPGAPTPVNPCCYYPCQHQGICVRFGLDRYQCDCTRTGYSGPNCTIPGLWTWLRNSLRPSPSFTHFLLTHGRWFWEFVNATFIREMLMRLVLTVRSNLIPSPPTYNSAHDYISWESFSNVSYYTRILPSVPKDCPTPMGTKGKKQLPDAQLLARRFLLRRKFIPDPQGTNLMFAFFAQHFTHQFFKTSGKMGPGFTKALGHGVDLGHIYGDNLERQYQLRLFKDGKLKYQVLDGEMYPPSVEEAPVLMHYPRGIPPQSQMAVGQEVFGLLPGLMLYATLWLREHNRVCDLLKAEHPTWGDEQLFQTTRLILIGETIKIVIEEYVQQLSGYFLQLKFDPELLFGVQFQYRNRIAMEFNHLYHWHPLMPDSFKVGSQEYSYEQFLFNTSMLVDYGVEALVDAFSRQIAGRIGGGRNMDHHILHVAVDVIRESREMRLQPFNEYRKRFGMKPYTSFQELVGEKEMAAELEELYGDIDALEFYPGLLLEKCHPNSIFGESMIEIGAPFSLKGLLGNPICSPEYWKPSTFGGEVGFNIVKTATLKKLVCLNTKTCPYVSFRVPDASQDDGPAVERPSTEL
Sequence of 5-HT2A (P28223 whole entry): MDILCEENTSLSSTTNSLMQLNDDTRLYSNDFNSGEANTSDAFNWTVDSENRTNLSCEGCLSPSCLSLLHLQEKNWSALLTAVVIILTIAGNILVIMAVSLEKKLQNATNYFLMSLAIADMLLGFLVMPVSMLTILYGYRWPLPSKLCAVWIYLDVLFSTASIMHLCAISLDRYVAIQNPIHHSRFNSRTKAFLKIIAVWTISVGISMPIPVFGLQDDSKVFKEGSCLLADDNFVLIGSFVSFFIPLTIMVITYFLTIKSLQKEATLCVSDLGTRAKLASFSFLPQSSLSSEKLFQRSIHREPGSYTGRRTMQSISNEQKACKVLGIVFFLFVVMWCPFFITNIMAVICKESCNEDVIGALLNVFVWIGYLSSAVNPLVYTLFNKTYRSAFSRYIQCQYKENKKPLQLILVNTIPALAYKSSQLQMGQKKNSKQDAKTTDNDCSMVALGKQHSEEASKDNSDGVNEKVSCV

As for `CCC(N)Cc1cc(OC)c(C)cc1OC` (stereo not drawn) [Ariadne (32), 1-(2,5-dimethoxy-4-methylphenyl)butan-2-amine], the inhibition at 10 µM in assay [1] and in assay [2] was 72% throughout. Also, the “Selectivity (EC50 2B ÷ EC50 2A)” value at 5-HT2A was determined as 25x. Further, on 5-HT2B, the pEC50 is less than 4.49. The “antidepressant-like effects (immobility time)” value in “Forced swim test” was “antidepressant-like effects”. Besides, the “psychedelic activity (number of head twitches in a 10-min period)” value in assay [3] is reported as “lower psychedelic activity”. The “% stimulation” value at Acetylcholinesterase, on COX-1, at COX-2, on MAO-A, at PDE3A and at PDE4D2 was less than 50% each time. The “% stimulation” value (in assay [4]; in the assay on 5-HT1B; on 5-HT3; on Adenosine A2A; at Adrenergic α1A; at Adrenergic α2A) was less than 50% throughout. Moreover, the “% stimulation” value (on Adrenergic β1; at Adrenergic β2; in the assay with Androgen (Testosterone); at CB1; at CB2; in [5]) was less than 50% throughout.
